Measurements as given in patent USRE47689E1, “Compounds for treating spinal muscular atrophy” (PTC Therapeutics, Inc., priority 2011, dated 2019).
Read-outs that look alike come from different tables or passages of the source.

Columns and labels:
[1] = test system: SMN2 minigene (full length SMN2 minigene mRNA containing SMN2 exon 7); test: SMN2 minigene mRNA splicing RT-qPCR assay in cultured cells; type: cell-based, human; conditions: for EC (1.5-fold): Homo sapiens, HEK293-H, read-out: EC1.5x for production of full length SMN2 mRNA
Outline: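 Lysates → one-step RT-qPCR, minigene-specific primers (0.4 μM final) + GAPDH multiplex, 40 cycles. FL/GAPDH vs DMSO; EC1.5x, star-binned.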

Smn protein = Smn protein assay in cultured cells (SMN HTRF); type: cell-based, human; conditions: 48 hours; for EC1.5x (concentration giving 1.5-fold Smn protein increase): SMA Type 1 patient fibroblast cells (GM03813), 7-point concentration curve, SMN HTRF, concentration producing 1.5 times Smn protein vs DMSO vehicle control, read-out: EC1.5x for Smn protein expression; for maximum fold (Fold) increase of Smn protein: SMA patient fibroblast cells, 7-point concentration data, fold increase relative to vehicle control (SMN HTRF)
Outline: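 Smn in SMA fibroblast lysates, measured by anti-SMN HTRF after 48 h compound exposure; EC1.5x from fold change over vehicle.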

[2] = HEK293H cells stably transfected with SMN2-A minigene, 24 hours, 7-point concentration curve, 1.5-fold relative to vehicle-treated cells

SMILES: Cc1cc2cc(-c3cc4ccc(N5CCN(C6CC6)CC5)cc4oc3=O)oc2c(C)n1 [Compound 798, 7-(4-cyclopropylpiperazin-1-yl)-3-(5,7-dimethylfuro[2,3-c]pyridin-2-yl)-2H-chromen-2-one]
- EC (1.5-fold) [1, 2]: 0.1 to 0.3 µM
- EC1.5x (concentration giving 1.5-fold Smn protein increase) (Smn protein): 300 to 1000 nM
- maximum fold (Fold) increase of Smn protein (Smn protein): **** (fold increase between >1.5 and ≤1.65)

SMILES: CC(C)(C)OC(=O)N[C@H]1CCN(c2ccc3cc(-c4cn5cc(Cl)ccc5n4)c(=O)oc3c2)C1 [Compound 106, tert-butyl {(3S)-1-[3-(6-chloroimidazo[1,2-a]pyridin-2-yl)-2-oxo-2H-chromen-7-yl]pyrrolidin-3-yl}carbamate]
- EC (1.5-fold) [1, 2]: 3 to 30 µM
- maximum fold (Fold) increase of Smn protein (Smn protein): * (maximum fold increase of ≤1.2)

SMILES: O=c1oc2cc(N3CCN4CCC[C@H]4C3)ccc2cc1-c1ccc2nccn2c1 [Compound 979, 7-[(8aS)-hexahydropyrrolo[1,2-a]pyrazin-2(1H)-yl]-3-(imidazo[1,2-a]pyridin-6-yl)-2H-chromen-2-one]
- EC (1.5-fold) [1, 2]: 1 to 3 µM
- maximum fold (Fold) increase of Smn protein (Smn protein): ** (fold increase between >1.2 and ≤1.35)

SMILES: Cc1nccc(-c2cc3ccc(N4CCN(C)CC4)cc3oc2=O)n1 [Compound 297, 7-(4-methylpiperazin-1-yl)-3-(2-methylpyrimidin-4-yl)-2H-chromen-2-one]
- EC (1.5-fold) [1, 2]: 3 to 30 µM
- maximum fold (Fold) increase of Smn protein (Smn protein): * (maximum fold increase of ≤1.2)

SMILES: Cc1cn2cc(-c3cc4ccc(N5CCN(C(C)C)[C@H](C)C5)cc4oc3=O)cc2c(C)n1 [Compound 813, 3-(1,3-dimethylpyrrolo[1,2-a]pyrazin-7-yl)-7-[(3R)-3-methyl-4-(propan-2-yl)piperazin-1-yl]-2H-chromen-2-one]
- EC (1.5-fold) [1, 2]: < 0.1 µM
- EC1.5x (concentration giving 1.5-fold Smn protein increase) (Smn protein): < 300 nM
- maximum fold (Fold) increase of Smn protein (Smn protein): **** (fold increase between >1.5 and ≤1.65)

SMILES: C[C@H]1CN(c2ccc3cc(-c4cc5ccccn5c4)c(=O)oc3c2)CCN1 [Compound 565, 3-(indolizin-2-yl)-7-[(3S)-3-methylpiperazin-1-yl]-2H-chromen-2-one]
- EC (1.5-fold) [1, 2]: 1 to 3 µM
- maximum fold (Fold) increase of Smn protein (Smn protein): * (maximum fold increase of ≤1.2)

SMILES: C[C@H]1CN(c2ccc3cc(-c4cc5cnccc5s4)c(=O)oc3c2)CCN1 [Compound 629, 7-[(3S)-3-methylpiperazin-1-yl]-3-(thieno[3,2-c]pyridin-2-yl)-2H-chromen-2-one]
- EC (1.5-fold) [1, 2]: 0.3 to 1 µM
- maximum fold (Fold) increase of Smn protein (Smn protein): * (maximum fold increase of ≤1.2)

SMILES: O=c1oc2cc(N3CCNCC3)ccc2cc1-c1cn2ccccc2n1 [Compound 34, 3-(imidazo[1,2-a]pyridin-2-yl)-7-(piperazin-1-yl)-2H-chromen-2-one]
- EC (1.5-fold) [1, 2]: 0.3 to 1 µM
- maximum fold (Fold) increase of Smn protein (Smn protein): ** (fold increase between >1.2 and ≤1.35)

SMILES: CN1CCN(c2cc(F)c3cc(-c4cn5cccnc5n4)c(=O)oc3c2)CC1 [Compound 351, 5-fluoro-3-(imidazo[1,2-a]pyrimidin-2-yl)-7-(4-methylpiperazin-1-yl)-2H-chromen-2-one]
- EC (1.5-fold) [1, 2]: 0.3 to 1 µM
- maximum fold (Fold) increase of Smn protein (Smn protein): * (maximum fold increase of ≤1.2)

SMILES: Cc1cn2cc(-c3cc4ccc(N5CCC6(CC5)CNC6)cc4oc3=O)nc2c(C)n1 [Compound 976, 7-(2,7-diazaspiro[3.5]non-7-yl)-3-(6,8-dimethylimidazo[1,2-a]pyrazin-2-yl)-2H-chromen-2-one]
- EC (1.5-fold) [1, 2]: < 0.1 µM
- EC1.5x (concentration giving 1.5-fold Smn protein increase) (Smn protein): 1000 to 3000 nM
- maximum fold (Fold) increase of Smn protein (Smn protein): *** (fold increase between >1.35 and ≤1.5)

SMILES: Cc1csc(-c2cc3ccc(N4CCNCC4)cc3oc2=O)n1 [Compound 37, 3-(4-methyl-1,3-thiazol-2-yl)-7-(piperazin-1-yl)-2H-chromen-2-one]
- EC (1.5-fold) ([1]; 24 h): 1 to 3 µM
- maximum fold (Fold) increase of Smn protein (Smn protein): ** (fold increase between >1.2 and ≤1.35)

SMILES: Cc1cn2cc(-c3cc4ccc(CCCNCCO)cc4oc3=O)nc2c(C)n1 [Compound 879, 3-(6,8-dimethylimidazo[1,2-a]pyrazin-2-yl)-7-{3-[(2-hydroxyethyl)amino]propyl}-2H-chromen-2-one]
- EC (1.5-fold) [1, 2]: < 0.1 µM
- EC1.5x (concentration giving 1.5-fold Smn protein increase) (Smn protein): < 300 nM
- maximum fold (Fold) increase of Smn protein (Smn protein): **** (fold increase between >1.5 and ≤1.65)

SMILES: O=c1oc2cc(N3CCNCC3)ccc2cc1-c1cc(C(F)(F)F)ccn1 [Compound 76, 7-(piperazin-1-yl)-3-[4-(trifluoromethyl)pyridin-2-yl]-2H-chromen-2-one]
- EC (1.5-fold) [1, 2]: 1 to 3 µM
- maximum fold (Fold) increase of Smn protein (Smn protein): * (maximum fold increase of ≤1.2)

SMILES: Cc1nc2ccc(-c3cc4ccc(N5CCN(C)[C@@H](C)C5)cc4oc3=O)cc2s1 [Compound 776, 7-[(3S)-3,4-dimethylpiperazin-1-yl]-3-(2-methyl-1,3-benzothiazol-6-yl)-2H-chromen-2-one acetate (2:1)]
- EC (1.5-fold) [1, 2]: 1 to 3 µM
- maximum fold (Fold) increase of Smn protein (Smn protein): ** (fold increase between >1.2 and ≤1.35)

SMILES: Cc1nccn2cc(-c3cc4ccc(N5CCN[C@H](C)C5)cc4oc3=O)nc12 [Compound 559, 3-(8-methylimidazo[1,2-a]pyrazin-2-yl)-7-[(3R)-3-methylpiperazin-1-yl]-2H-chromen-2-one]
- EC (1.5-fold) [1, 2]: 0.3 to 1 µM
- maximum fold (Fold) increase of Smn protein (Smn protein): *** (fold increase between >1.35 and ≤1.5)

SMILES: Cc1csc2nc(-c3cc4ccc(N5CCNCC5)cc4oc3=O)cn12.Cl.Cl.Cl [Compound 141, 3-(3-methylimidazo[2,1-b][1,3]thiazol-6-yl)-7-(piperazin-1-yl)-2H-chromen-2-one hydrochloride (1:3)]
- EC1.5x for production of full length SMN2 mRNA [1, 2]: ** (between >1 μM and ≤3 μM)
- maximum fold (Fold) increase of Smn protein (Smn protein): * (maximum fold increase of ≤1.2)

SMILES: CN1CCN(c2ccc3cc(-c4nc5ncccc5o4)c(=O)oc3c2)CC1 [Compound 111, 7-(4-methylpiperazin-1-yl)-3-([1,3]oxazolo[4,5-b]pyridin-2-yl)-2H-chromen-2-one]
- EC (1.5-fold) [1, 2]: 3 to 30 µM
- maximum fold (Fold) increase of Smn protein (Smn protein): ** (fold increase between >1.2 and ≤1.35)

SMILES: Cc1cn2cc(-c3cc4ccc(N5CCCN(C(C)C)CC5)cc4oc3=O)cc2cn1 [Compound 753, 3-(3-methylpyrrolo[1,2-a]pyrazin-7-yl)-7-[4-(propan-2-yl)-1,4-diazepan-1-yl]-2H-chromen-2-one]
- EC (1.5-fold) [1, 2]: < 0.1 µM
- EC1.5x (concentration giving 1.5-fold Smn protein increase) (Smn protein): 1000 to 3000 nM
- maximum fold (Fold) increase of Smn protein (Smn protein): *** (fold increase between >1.35 and ≤1.5)

SMILES: O=c1oc2cc(N3CCNCC3)ccc2cc1-c1cn2cc(F)ccc2n1 [Compound 103, 3-(6-fluoroimidazo[1,2-a]pyridin-2-yl)-7-(piperazin-1-yl)-2H-chromen-2-one]
- EC (1.5-fold) [1, 2]: 0.3 to 1 µM
- maximum fold (Fold) increase of Smn protein (Smn protein): ** (fold increase between >1.2 and ≤1.35)

SMILES: Cc1cn2cc(-c3cc4ccc(N5CCN(C6CC6)CC5)cc4oc3=O)cc2c(C)n1 [Compound 752, 7-(4-cyclopropylpiperazin-1-yl)-3-(1,3-dimethylpyrrolo[1,2-a]pyrazin-7-yl)-2H-chromen-2-one]
- EC (1.5-fold) [1, 2]: < 0.1 µM
- EC1.5x (concentration giving 1.5-fold Smn protein increase) (Smn protein): 300 to 1000 nM
- maximum fold (Fold) increase of Smn protein (Smn protein): **** (fold increase between >1.5 and ≤1.65)

SMILES: CN1CCCN(c2ccc3cc(-c4cn5ccncc5n4)c(=O)oc3c2)CC1 [Compound 455, 3-(imidazo[1,2-a]pyrazin-2-yl)-7-(4-methyl-1,4-diazepan-1-yl)-2H-chromen-2-one]
- EC (1.5-fold) [1, 2]: < 0.1 µM
- EC1.5x (concentration giving 1.5-fold Smn protein increase) (Smn protein): 300 to 1000 nM
- maximum fold (Fold) increase of Smn protein (Smn protein): **** (fold increase between >1.5 and ≤1.65)

SMILES: CC1CN(c2ccc3cc(-c4nc5ccccc5o4)c(=O)oc3c2)C(C)CN1 (stereo not shown) [Compound 86, 3-(1,3-benzoxazol-2-yl)-7-(2,5-dimethylpiperazin-1-yl)-2H-chromen-2-one]
- EC (1.5-fold) [1, 2]: 3 to 30 µM
- maximum fold (Fold) increase of Smn protein (Smn protein): * (maximum fold increase of ≤1.2)

SMILES: CCN1CCC(c2ccc3cc(-c4cc5c(C)nc(C)cn5n4)c(=O)oc3c2)CC1 [Cpd 853, 3-(4,6-dimethylpyrazolo[1,5-a]pyrazin-2-yl)-7-(1-ethylpiperidin-4-yl)-2H-chromen-2-one]
- EC (1.5-fold) [1, 2]: 1 to 3 µM
- maximum fold (Fold) increase of Smn protein (Smn protein): * (maximum fold increase of ≤1.2)

SMILES: O=C(O)C(F)(F)F.O=c1oc2cc(N3CCNCC3)ccc2cc1-c1nc2cccc(C(F)(F)F)c2o1 [Compound 2, 7-(piperazin-1-yl)-3[7-(trifluoromethyl)-1,3-benzoxazol-2-yl]-2H-chromen-2-one trifluoroacetate]
- EC (1.5-fold) [1, 2]: 0.3 to 1 µM
- maximum fold (Fold) increase of Smn protein (Smn protein): * (maximum fold increase of ≤1.2)

SMILES: Cc1cn2cc(-c3cc4ccc(N5CCN6CCC[C@H]6C5)cc4oc3=O)cc(F)c2n1 [Compound 983, 3-(8-fluoro-2-methylimidazo[1,2-a]pyridin-6-yl)-7-[(8aS)-hexahydropyrrolo[1,2-a]pyrazin-2(1H)-yl]-2H-chromen-2-one]
- EC (1.5-fold) [1, 2]: < 0.1 µM
- EC1.5x (concentration giving 1.5-fold Smn protein increase) (Smn protein): < 300 nM
- maximum fold (Fold) increase of Smn protein (Smn protein): ***** (fold increase >1.65)

SMILES: CCN1CCN(c2ccc3cc(-c4cn5cc(C)nc(C)c5n4)c(=O)oc3c2)C[C@H]1C [Compound 679, 3-(6,8-dimethylimidazo[1,2-a]pyrazin-2-yl)-7-[(3R)-4-ethyl-3-methylpiperazin-1-yl]-2H-chromen-2-one]
- EC (1.5-fold) [1, 2]: < 0.1 µM
- EC1.5x (concentration giving 1.5-fold Smn protein increase) (Smn protein): < 300 nM
- maximum fold (Fold) increase of Smn protein (Smn protein): ***** (fold increase >1.65)
